Literature values as cited in patent US8343778B2, “Microfluidic microarray assemblies and methods of manufacturing and using” (Simon Fraser University, priority 2004, dated 2013).

Target: T1, Ure2p (Saccharomyces cerevisiae, UniProt P23202)
T1 sequence (P23202 1-354): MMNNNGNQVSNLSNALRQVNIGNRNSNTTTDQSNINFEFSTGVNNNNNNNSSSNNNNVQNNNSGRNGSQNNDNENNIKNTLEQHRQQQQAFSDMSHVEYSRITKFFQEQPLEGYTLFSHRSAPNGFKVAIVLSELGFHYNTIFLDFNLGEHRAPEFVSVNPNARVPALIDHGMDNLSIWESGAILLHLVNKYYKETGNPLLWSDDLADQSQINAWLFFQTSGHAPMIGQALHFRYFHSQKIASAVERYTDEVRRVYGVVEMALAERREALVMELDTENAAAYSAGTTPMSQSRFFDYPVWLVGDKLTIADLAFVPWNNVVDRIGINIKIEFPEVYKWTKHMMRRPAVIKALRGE
Settings: high-density SMA of 1,3-dioxane-based small molecules exposed to fluorescently labeled Ure2p

## uretupamine
  binding of fluorescently labeled Ure2p to arrayed small molecule: Ure2p-binding
